US8841309B2, “Substituted pyrazines and their use in the treatment of disease” (Boehringer Ingelheim International GmbH, priority 2012, dated 2014)

These molecules were tested against T1, ENaC (Mus musculus, UniProt Q61180+Q9WU38+Q9WU39) (assay: Ussing chamber: short circuit current (I_sc) in mouse kidney M-1 cells, amiloride-sensitive). Conditions: compound applied to apical solution, 37° C.
T1 construct: Mouse kidney M-1 cells were cultivated in DMEM containing 5% FCS and 5 μM dexamethasone; endogenous in cells; host or cells: mouse kidney M-1 cells
T1 sequence (Q61180 1-699): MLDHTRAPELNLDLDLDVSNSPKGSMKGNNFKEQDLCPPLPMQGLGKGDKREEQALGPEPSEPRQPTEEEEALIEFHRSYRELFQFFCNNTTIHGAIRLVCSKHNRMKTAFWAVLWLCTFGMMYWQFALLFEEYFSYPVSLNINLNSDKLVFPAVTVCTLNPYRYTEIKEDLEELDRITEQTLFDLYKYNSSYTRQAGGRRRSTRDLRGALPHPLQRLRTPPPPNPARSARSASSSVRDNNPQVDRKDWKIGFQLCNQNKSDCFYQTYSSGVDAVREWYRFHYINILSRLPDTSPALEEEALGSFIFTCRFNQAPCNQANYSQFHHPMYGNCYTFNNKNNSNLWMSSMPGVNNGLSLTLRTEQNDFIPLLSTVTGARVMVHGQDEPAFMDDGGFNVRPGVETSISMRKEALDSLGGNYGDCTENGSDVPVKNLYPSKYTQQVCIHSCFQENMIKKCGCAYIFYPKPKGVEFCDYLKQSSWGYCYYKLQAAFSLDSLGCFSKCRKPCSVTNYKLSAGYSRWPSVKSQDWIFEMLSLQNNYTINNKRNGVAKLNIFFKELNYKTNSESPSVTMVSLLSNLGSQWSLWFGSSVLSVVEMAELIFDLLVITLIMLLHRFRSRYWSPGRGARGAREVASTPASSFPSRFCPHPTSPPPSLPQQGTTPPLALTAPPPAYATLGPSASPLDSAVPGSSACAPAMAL
T1 sequence (Q9WU38 1-638): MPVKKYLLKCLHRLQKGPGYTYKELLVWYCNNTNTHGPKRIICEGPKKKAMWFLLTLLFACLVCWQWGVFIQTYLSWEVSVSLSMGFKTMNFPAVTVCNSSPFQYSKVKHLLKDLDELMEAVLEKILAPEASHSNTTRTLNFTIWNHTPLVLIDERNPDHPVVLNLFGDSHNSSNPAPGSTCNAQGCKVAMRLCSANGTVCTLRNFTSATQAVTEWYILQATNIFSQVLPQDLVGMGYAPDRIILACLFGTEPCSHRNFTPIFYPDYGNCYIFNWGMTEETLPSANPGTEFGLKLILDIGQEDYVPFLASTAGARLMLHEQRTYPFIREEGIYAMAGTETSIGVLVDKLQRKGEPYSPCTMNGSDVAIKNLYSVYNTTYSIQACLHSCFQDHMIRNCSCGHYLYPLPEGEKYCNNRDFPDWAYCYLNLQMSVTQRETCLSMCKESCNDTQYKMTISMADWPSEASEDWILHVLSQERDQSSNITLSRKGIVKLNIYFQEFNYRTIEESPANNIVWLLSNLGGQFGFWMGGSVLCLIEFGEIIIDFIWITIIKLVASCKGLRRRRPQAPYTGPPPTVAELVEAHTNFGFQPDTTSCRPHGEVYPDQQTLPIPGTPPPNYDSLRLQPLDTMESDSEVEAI
T1 sequence (Q9WU39 1-655): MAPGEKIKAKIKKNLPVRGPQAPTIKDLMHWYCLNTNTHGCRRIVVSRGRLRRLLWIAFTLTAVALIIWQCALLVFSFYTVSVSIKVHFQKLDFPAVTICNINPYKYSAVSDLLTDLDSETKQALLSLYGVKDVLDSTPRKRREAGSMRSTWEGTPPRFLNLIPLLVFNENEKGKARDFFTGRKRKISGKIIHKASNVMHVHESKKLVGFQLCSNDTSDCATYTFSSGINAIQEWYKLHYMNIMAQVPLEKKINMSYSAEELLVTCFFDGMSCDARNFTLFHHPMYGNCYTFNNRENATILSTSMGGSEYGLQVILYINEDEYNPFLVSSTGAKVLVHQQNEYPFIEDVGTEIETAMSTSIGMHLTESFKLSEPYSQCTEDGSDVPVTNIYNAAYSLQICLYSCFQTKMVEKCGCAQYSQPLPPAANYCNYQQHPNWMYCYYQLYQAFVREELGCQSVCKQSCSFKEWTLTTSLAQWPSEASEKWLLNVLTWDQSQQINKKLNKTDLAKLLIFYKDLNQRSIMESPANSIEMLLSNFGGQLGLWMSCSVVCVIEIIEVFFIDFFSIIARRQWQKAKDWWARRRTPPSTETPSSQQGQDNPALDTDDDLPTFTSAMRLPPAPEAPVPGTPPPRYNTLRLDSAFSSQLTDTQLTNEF
Type: cell-based

| SMILES | IC50 |
| --- | --- |
| NC(=NC(=O)c1nc(Cl)c(N)nc1N)NC1C[N+]2(CC(=O)NC3CCC(c4ccccc4)CC3)CCC1CC2 (stereo not drawn) [Example 75] | 22 nM |
| NC(=NC(=O)c1nc(Cl)c(N)nc1N)N[C@@H]1C[N+]2(CC(=O)NCC3CCOCC3)CCC1CC2 [Example 76] | 39 nM |
| CCOC(=O)c1cccc(CCNC(=O)C[N+]23CCC(CC2)[C@H](NC(N)=NC(=O)c2nc(Cl)c(N)nc2N)C3)c1 [Example 77] | 43 nM |
